Structures can show the parent of a compound that is named as a salt. Where only a bound is given, the exact number is not on record here.

The first assay concerns the target T1, human muscarinic acetylcholine M1 receptor (Homo sapiens, UniProt P11229).
T1 construct: expressed in transfected cells; host or cells: CHO-K1
T1 sequence (P11229 1-460): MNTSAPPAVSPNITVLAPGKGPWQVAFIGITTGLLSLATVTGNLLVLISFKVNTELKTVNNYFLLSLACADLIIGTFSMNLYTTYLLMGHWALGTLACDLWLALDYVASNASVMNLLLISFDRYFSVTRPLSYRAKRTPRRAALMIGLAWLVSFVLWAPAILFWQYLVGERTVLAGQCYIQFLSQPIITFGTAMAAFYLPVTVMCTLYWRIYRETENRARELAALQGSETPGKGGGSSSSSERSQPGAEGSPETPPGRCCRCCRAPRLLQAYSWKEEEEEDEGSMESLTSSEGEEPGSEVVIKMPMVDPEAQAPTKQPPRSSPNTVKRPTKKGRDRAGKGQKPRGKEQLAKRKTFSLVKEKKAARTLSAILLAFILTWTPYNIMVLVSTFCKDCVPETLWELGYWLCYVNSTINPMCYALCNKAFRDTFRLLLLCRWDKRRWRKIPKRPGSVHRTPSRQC
The experiment in a line: M1 PAM Assay (IP-One HTRF, IP1 accumulation in M1-CHO cells). It is filed as cell-based.
Conditions: not given
As to the method:
Then diluted compounds (0.6% DMSO final concentration) are added together with EC20 of acetylcholine and incubated with the cells for 30 min at 37° C., 5% CO2.
CHO-K1 cells stably transfected with human muscarinic acetylcholine M1 receptor are cultured in Ham's F12 medium containing 10% heat inactivated fetal calf serum, 2 mM L-glutamine and Penicillin-Streptomycin grown in a humidified atmosphere at 5% CO2/95% air at 37° C.
(In general: Time-resolved FRET reads energy transfer from a long-lived donor to a nearby acceptor.)
Compound `O=C(c1ccc(F)cc1O[C@H]1C[C@H]2CC[C@@H](C1)N2CCF)N1Cc2nn3cc(Cl)cnc3c2C1` (single isomer, unassigned) [Example 51, (3-chloro-7H-pyrrolo[3′,4′:3,4]pyrazolo[1,5-a]pyrimidin-8(9H)-yl)(4-fluoro-2-{[(3-endo)-8-(2-fluoroethyl)-8-azabicyclo[3.2.1]oct-3-yl]oxy}phenyl)methanone] displayed an EC50 below 200 nM. Same read-out and setting: the value for `CCCN1[C@@H]2CC[C@H]1C[C@@H](Oc1cc(F)ccc1C(=O)N1Cc3nn4cc(Cl)cnc4c3C1)C2` [Example 64, (3-chloro-7H-pyrrolo[3′,4′:3,4]pyrazolo[1,5-a]pyrimidin-8(9H)-yl)(4-fluoro-2-{[(3-endo)-8-propyl-8-azabicyclo[3.2.1]oct-3-yl]oxy}phenyl)methanone] was below 200 nM.

`CC(O)CN1[C@@H]2CC[C@H]1C[C@@H](Oc1cc(F)ccc1C(=O)N1Cc3nn4cc(Cl)cnc4c3C1)C2` (stereo partly drawn) [Example 73, (3-chloro-7H-pyrrolo[3′,4′:3,4]pyrazolo[1,5-a]pyrimidin-8(9H)-yl)(4-fluoro-2-{[(3-endo)-8-(2-hydroxypropyl)-8-azabicyclo[3.2.1]oct-3-yl]oxy}phenyl)methanone]: the EC50 is 200 to 1000 nM.

Staying with this assay, now noted: CHO-K1 cells stably transfected with human M1 receptor; compounds added with EC20 of acetylcholine (25 nM), 30 min; intracellular IP1 by IP-One HTRF; read-out: M1 PAM EC50.
Regarding `Cc1nc2c3c(nn2c(C)c1Cl)CN(C(=O)c1ccc(F)cc1O[C@H]1CCN[C@@H](C)C1)C3` (stereo in doubt) [Example 48, (3-chloro-2,4-dimethyl-7H-pyrrolo[3′,4′:3,4]pyrazolo[1,5-a]pyrimidin-8(9H)-yl)(4-fluoro-2-((2-methylpiperidin-4-yl)oxy)phenyl)methanone hydrochloride], the EC50 was 200 to 1000 nM. `Cc1nc2c3c(nn2c(C)c1Cl)CN(C(=O)c1ccc(F)cc1O[C@H]1CCN(C)C[C@@H]1F)C3` (racemic) [Example 2, (anti)-(3-chloro-2,4-dimethyl-7H-pyrrolo[3′,4′:3,4]pyrazolo[1,5-a]pyrimidin-8(9H)-yl)(4-fluoro-2-((-3-fluoro-1-methylpiperidin-4-yl)oxy)phenyl)methanone]: the 50% effective concentration (EC50) lay within 200 to 1000 nM. For the compound “(3-chloro-4-ethyl-2-methyl-7H-pyrrolo[3′,4′:3,4]pyrazolo[1,5-a]pyrimidin-8(9H)-yl)(2-((4-hydroxytetrahydrofuran-3-yl)oxy)phenyl)methanone or (3-chloro-2-ethyl-4-methyl-7H-pyrrolo[3′,4′:3,4]pyrazolo[1,5-a]pyrimidin-8(9H)-yl)(2-((4-hydroxytetrahydrofuran-3-yl)oxy)phenyl)methanone [Example 22]”, the EC50 lay in the range of 1000 to 3000 nM. On the same count and under the same terms, in the case of `Cc1nc2c3c(nn2c(C)c1Cl)CN(C(=O)c1ccc(F)cc1OCCN1CCOCC1)C3` [Example 15, (3-Chloro-2,4-dimethyl-7H-pyrrolo[3′,4′:3,4]pyrazolo[1,5-a]pyrimidin-8(9H)-yl)(4-fluoro-2-(2-morpholinoethoxy)phenyl)methanone] it was 1000 to 3000 nM. Still for that read-out and setting: in the case of `Cc1nc2c3c(nn2c(C)c1Cl)CN(C(=O)c1ccncc1OC1CCN(C)CC1)C3` [Example 3, (3-chloro-2,4-dimethyl-7H-pyrrolo[3′,4′:3,4]pyrazolo[1,5-a]pyrimidin-8(9H)-yl)(3-((1-methylpiperidin-4-yl)oxy)pyridin-4-yl)methanone] it was 1000 to 3000 nM; in that of `CCc1nc2c3c(nn2c(C)c1Cl)CN(C(=O)c1ccccc1O[C@@H]1CCC[C@H]1O)C3` [Example 9, (anti)-(6-Chloro-5-ethyl-7-methyl-1H,3H-2,4,7a,8-tetraaza-cyclopenta[a]inden-2-yl)-[2-(2-hydroxy-cyclopentyloxy)-phenyl]-methanone or (anti)-(6-Chloro-5-methyl-7-ethyl-1H,3H-2,4,7a,8-tetraaza-cyclopenta[a]inden-2-yl)-[2-(2-hydroxy-cyclopentyloxy)-phenyl]-methanone], 1000 to 3000 nM. Same read-out and setting: in the case of `Cc1nc2c3c(nn2c(C)c1Cl)CN(C(=O)c1ccc(F)cc1O[C@H]1CCNC[C@H]1F)C3` (racemic) [Example 18] it was 200 to 1000 nM. For the compound `Cc1nc2c3c(nn2c(C)c1Cl)CN(C(=O)c1ccc(Br)cc1OCCN(C)C)C3` [Example 31, (4-bromo-2-(2-(dimethylamino)ethoxy)phenyl)(3-chloro-2,4-dimethyl-7H-pyrrolo[3′,4′:3,4]pyrazolo[1,5-a]pyrimidin-8(9H)-yl)methanone], the EC50 was 200 to 1000 nM. On the same count and under the same terms, in the case of `Cc1nc2c3c(nn2c(C)c1Cl)CN(C(=O)c1ccc(F)cc1OC1CCC(F)(F)CC1)C3` [Example 47, (3-chloro-2,4-dimethyl-7H-pyrrolo[3′,4′:3,4]pyrazolo[1,5-a]pyrimidin-8(9H)-yl)(2-((4,4-difluorocyclohexyl)oxy)-4-fluorophenyl)methanone] it was 1000 to 3000 nM; in that of `Cc1nc2c3c(nn2c(C)c1Cl)CN(C(=O)c1ccc(F)cc1OC1CN(CCO)C1)C3` [Example 30, (3-chloro-2,4-dimethyl-7H-pyrrolo[3′,4′:3,4]pyrazolo[1,5-a]pyrimidin-8(9H)-yl)(4-fluoro-2-((1-(2-hydroxyethyl)azetidin-3-yl)oxy)phenyl)methanone], 200 to 1000 nM; in that of `Cc1nc2c3c(nn2c(C)c1Cl)CN(C(=O)c1ccccc1O[C@H]1CN(C)C[C@@H]1O)C3` (racemic) [Example 13, (anti)-(6-Chloro-5,7-dimethyl-1H,3H-2,4,7a,8-tetraaza-cyclopenta[a]inden-2-yl)-[2-(4-hydroxy-1-methyl-pyrrolidin-3-yloxy)-phenyl]-methanone], 1000 to 3000 nM. Same read-out and setting: in the case of `COc1cncc(CCOc2cc(F)ccc2C(=O)N2Cc3nn4c(C)c(Cl)c(C)nc4c3C2)c1` [Example 72] it was 1000 to 3000 nM; in that of `Cc1nc2c3c(nn2c(C)c1Cl)CN(C(=O)c1ccc(F)cc1OCCn1cncn1)C3` [Example 20], 200 to 1000 nM. Same read-out and setting: the value for `Cc1nc2c3c(nn2c(C)c1Cl)CN(C(=O)c1ccccc1O[C@H]1CNC[C@@H]1O)C3` (racemic) [Example 4, (anti)-(6-Chloro-5,7-dimethyl-1H,3H-2,4,7a,8-tetraaza-cyclopenta[a]inden-2-yl)-[2-(4-hydroxy-pyrrolidin-3-yloxy)-phenyl]-methanone] was 200 to 1000 nM; that for `Cc1nc2c3c(nn2c(C)c1Cl)CN(C(=O)c1ccc(F)cc1OC1CCN(C(CO)CO)CC1)C3` [Example 29, (6-Chloro-5,7-dimethyl-1H,3H-2,4,7a8-tetraaza-cyclopenta[a]inden-2-y)-{4-fluoro-2-[1-(2-hydroxy-1-hydroxymethyl-ethyl)-piperidin-4-yloxy]-phenyl}-methanone] was below 200 nM; that for `CCCN1CCC(Oc2cc(F)ccc2C(=O)N2Cc3nn4c(C)c(Cl)c(C)nc4c3C2)CC1` [Example 77, (6-Chloro-5,7-dimethyl-1H,3H-2,4,7a,8-tetraaza-cyclopenta[a]inden-2-yl)-[4-fluoro-2-(1-propyl-piperidin-4-yloxy)-phenyl]-methanone] was below 200 nM. Take `Cc1nc2c3c(nn2c(C)c1Cl)CN(C(=O)c1ccccc1O[C@H]1CNC[C@H]1F)C3` (racemic) [Example 25, (syn)-(6-Chloro-5,7-dimethyl-1H,3H-2,4,7a,8-tetraaza-cyclopenta[a]inden-2-yl)-[2-(4-fluoro-pyrrolidin-3-yloxy)-phenyl]-methanone]: the EC50 was 200 to 1000 nM. Still for that read-out and setting: the value for `Cc1nc2c3c(nn2c(C)c1Cl)CN(C(=O)c1ccc(F)cc1OCCc1cncc(F)c1)C3` [Example 43, (3-chloro-2,4-dimethyl-7H-pyrrolo[3′,4′:3,4]pyrazolo[1,5-a]pyrimidin-8(9H)-yl)(4-fluoro-2-(2-(5-fluoropyridin-3-yl)ethoxy)phenyl)methanone] was below 200 nM.

In general, EC50 refers to the concentration at which the effect is half-maximal.
